As a reminder, the EC50 is the concentration needed to bring the measured effect to its halfway point.

The text below walks through data of patent US20100331297A1, “MODULATION OF PROTEIN TRAFFICKING” (FOLDRX PHARMACEUTICALS, INC., priority 2007, published 2010).

Assay [1] addresses T1, ΔF508 CFTR (Homo sapiens, UniProt P13569, DEL508-508). Nature of the assay: Corrector activity, YFP halide (iodide) quenching assay in FRT cells expressing ΔF508 CFTR. The format is cell-based. Further details: expressed in transfected cells; host or cells: Fischer rat thyroid (FRT) cells. As to conditions: FRT cells ΔF508 CFTR/YFP, 24 hours with compound at 37° C., forskolin and genistein; read-out: Corrector EC50. The procedure:
Fisher rat thyroid (FRT) cells stably expressing ΔF508 CFTR and a halide-sensitive variant of yellow fluorescent protein (YFP) were seeded into microtiter plates and allowed to grow for 24 hours at 37° C. and 5% CO2. See Pedemonte et al., J. Clin. Invest. […] Compounds in dimethylsulfoxide (DMSO) solution were pre-diluted into cell culture medium, the medium was removed from cells, and then fresh medium containing the compounds was applied. The cells were incubated for a further 24 hours at 37° C. and 5% CO2.
Activity of CFTR was assayed by removing the medium, washing the cell monolayer with phosphate-buffered saline solution (PBS), and then applying PBS containing forskolin and genistein. After 30 min incubation at 37° C., the plates were placed in a fluorescence plate reader equipped with a reagent injector.
Corrector activity was calculated as follows. Normalized endpoint fluorescence was calculated by dividing the endpoint fluorescence after iodide injection by the initial fluorescence reading and multiplication by 100. Corrector EC50 values were calculated from the activity vs. concentration data using a 4-parameter log fit. The bottom of the curve was constrained to zero activity (DMSO control) while the slope, EC50, and top of the curve were fitted to the data. The EC50 was determined as the concentration that corresponds to the inflection point of the fitted curve.

Assay [2] addresses T1, ΔF508 CFTR. Nature of the assay: Potentiator activity, YFP halide (iodide) quenching assay in FRT cells expressing ΔF508 CFTR, 27° C. pre-incubation. The format is cell-based. Further details: expressed in transfected cells; host or cells: Fischer rat thyroid (FRT) cells. As to conditions: FRT cells ΔF508 CFTR/YFP, 24 hours at 27° C., compound with forskolin 30 min. As for the experimental part:
Fisher rat thyroid (FRT) cells stably expressing ΔF508 CFTR and a halide-sensitive variant of yellow fluorescent protein (YFP) were seeded into microtiter plates and allowed to grow for 24 hours at 37° C. and 5% CO2, as described above. The medium was replaced with fresh medium and the cells were incubated for a further 24 hours at 27° C. and 5% CO2 to increase the level of mutant CFTR at the cell surface.
Compounds in DMSO solution were pre-diluted into phosphate-buffered saline solution (PBS) containing forskolin. Activity of CFTR was assayed by removing the medium, washing the cell monolayer with PBS, and then applying the compounds diluted in PBS containing forskolin. After 30 min of incubation at 37° C., the plates were placed in a fluorescence plate reader equipped with a reagent injector. After measuring an initial fluorescence value, iodide-containing buffer was injected and the decrease in fluorescence was followed at excitation and emission wavelengths of 485 and 530 nm, respectively.
Potentiator activity was calculated as follows. Normalized endpoint fluorescence was calculated by dividing the endpoint fluorescence after iodide injection by the initial fluorescence reading and multiplication by 100. Potentiator EC50 values were calculated by the same method as corrector EC50 values.

T1 sequence (P13569 with tags, fused parts or gaps DEL508-508): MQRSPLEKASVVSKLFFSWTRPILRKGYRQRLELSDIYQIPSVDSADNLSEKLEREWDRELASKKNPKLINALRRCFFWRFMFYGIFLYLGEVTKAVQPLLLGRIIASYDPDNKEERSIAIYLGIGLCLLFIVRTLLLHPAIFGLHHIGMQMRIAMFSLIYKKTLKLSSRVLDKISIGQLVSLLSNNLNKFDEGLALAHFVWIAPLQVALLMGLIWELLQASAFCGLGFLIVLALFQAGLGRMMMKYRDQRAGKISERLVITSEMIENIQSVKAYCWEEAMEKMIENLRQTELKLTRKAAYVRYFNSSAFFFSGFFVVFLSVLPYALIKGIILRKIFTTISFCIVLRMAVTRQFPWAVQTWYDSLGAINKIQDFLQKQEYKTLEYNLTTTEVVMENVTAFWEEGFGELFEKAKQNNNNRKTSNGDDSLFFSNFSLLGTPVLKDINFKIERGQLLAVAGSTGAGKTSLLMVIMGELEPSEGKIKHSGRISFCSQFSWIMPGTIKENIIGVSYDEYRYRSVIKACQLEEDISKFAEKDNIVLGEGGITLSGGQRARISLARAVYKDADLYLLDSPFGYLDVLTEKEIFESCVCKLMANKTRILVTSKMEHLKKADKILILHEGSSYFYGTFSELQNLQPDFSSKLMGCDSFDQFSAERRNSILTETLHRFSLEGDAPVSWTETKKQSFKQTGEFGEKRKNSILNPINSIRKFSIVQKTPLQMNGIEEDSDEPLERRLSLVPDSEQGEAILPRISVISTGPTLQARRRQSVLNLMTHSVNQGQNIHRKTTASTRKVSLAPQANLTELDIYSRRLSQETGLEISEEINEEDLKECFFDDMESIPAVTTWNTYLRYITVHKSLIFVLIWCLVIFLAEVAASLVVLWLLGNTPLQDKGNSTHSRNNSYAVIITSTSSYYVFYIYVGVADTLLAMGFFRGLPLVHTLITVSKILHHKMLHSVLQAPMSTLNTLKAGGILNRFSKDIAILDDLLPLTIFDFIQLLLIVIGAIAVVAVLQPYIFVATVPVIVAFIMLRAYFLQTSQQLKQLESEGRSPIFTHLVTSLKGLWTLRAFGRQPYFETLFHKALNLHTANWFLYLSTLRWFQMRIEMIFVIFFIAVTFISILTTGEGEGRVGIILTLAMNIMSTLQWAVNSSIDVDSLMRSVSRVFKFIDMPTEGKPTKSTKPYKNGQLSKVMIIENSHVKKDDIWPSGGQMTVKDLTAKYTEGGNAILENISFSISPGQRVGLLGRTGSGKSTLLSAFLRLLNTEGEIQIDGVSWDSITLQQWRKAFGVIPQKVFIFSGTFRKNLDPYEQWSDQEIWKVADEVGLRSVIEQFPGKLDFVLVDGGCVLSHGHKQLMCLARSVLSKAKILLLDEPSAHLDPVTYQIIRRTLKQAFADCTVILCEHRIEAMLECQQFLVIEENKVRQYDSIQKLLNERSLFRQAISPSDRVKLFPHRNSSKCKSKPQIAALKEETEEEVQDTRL

As for `CC(=O)N(C(C)=O)c1ncnc2c1c(-c1ccc(Cl)cc1)nn2C(C)(C)C` [Compound No. 97], the concentration for a half-maximal effect (EC50) on ΔF508 CFTR [1] and on ΔF508 CFTR [2] was 2 to 5 µM throughout.
For `Nc1ncnc2[nH]nc(Oc3cccc(Cl)c3)c12` [Compound No. 220, 3-(3-Chloro-phenoxy)-1H-pyrazolo[3,4-d]pyrimidin-4-ylamine], the EC50 at ΔF508 CFTR [1] and at ΔF508 CFTR [2] was over 15 µM throughout.
Turning to `Nc1ncnc2c1c(-c1ccc(Cl)cc1)cn2CC1CC1` [Compound No. 242, 5-(4-Chloro-phenyl)-7-cyclopropylmethyl-7H-pyrrolo[2,3-d]pyrimidin-4-ylamine], the EC50 is under 2 µM at ΔF508 CFTR [1] and 2 to 5 µM at ΔF508 CFTR [2].
Take `CC(C)(C)n1cc(-c2ccc(Cl)cc2)c2c(N)ncnc21` [Compound No. 261, 7-tert-Butyl-5-(4-chloro-phenyl)-7H-pyrrolo[2,3-d]pyrimidin-4-ylamine]: the half-maximal effective concentration (EC50) at ΔF508 CFTR [1] and at ΔF508 CFTR [2] was under 2 µM in each case.
On to `CC(C)(C)OC(=O)N1CC(n2nc(-c3ccc(Cl)cc3)c3c(N)ncnc32)C1` [Compound No. 267, 3-[4-Amino-3-(4-chloro-phenyl)-pyrazolo[3,4-d]pyrimidin-1-yl]-azetidine-1-carboxylic acid tert-butyl ester], for which the EC50 at ΔF508 CFTR [1] is over 15 µM; on ΔF508 CFTR [2], 2 to 5 µM.
Taken in the same sequence, the figures for `CC(C)(C)n1nc(-c2ccc(Cl)cc2)c2c(NS(C)(=O)=O)ncnc21` [Compound No. 274, N-[1-tert-Butyl-3-(4-chloro-phenyl)-1H-pyrazolo[3,4-d]pyrimidin-4-yl]-methanesulfonamide] were 2 to 5 µM and over 15 µM.
On to `CCNC(=O)N1CC(n2nc(-c3ccc(Cl)cc3)c3c(N)ncnc32)C1` [Compound No. 275, 3-[4-Amino-3-(4-chloro-phenyl)-pyrazolo[3,4-d]pyrimidin-1-yl]azetidine-1-carboxylic acid ethylamide], for which the concentration for a half-maximal effect (EC50) at ΔF508 CFTR [1] and on ΔF508 CFTR [2] was over 15 µM in each case.
For `COC(=O)Nc1ncnc2c1c(-c1ccc(Cl)cc1)nn2C(C)(C)C` [Compound No. 294, [1-tert-Butyl-3-(4-chloro-phenyl)-1H-pyrazolo[3,4-d]pyrimidin-4-yl]-carbamic acid methyl ester], the EC50 on ΔF508 CFTR [1] and on ΔF508 CFTR [2] was over 15 µM in each case.
On to `CC(=O)N1CC(n2nc(-c3ccc(Cl)cc3)c3c(N)ncnc32)C1` [Compound No. 295, 1-{3-[4-Amino-3-(4-chloro-phenyl)-pyrazolo[3,4-d]pyrimidin-1-yl]-azetidin-1-yl}-ethanone], for which the half-maximal effective concentration (EC50) at ΔF508 CFTR [1] and on ΔF508 CFTR [2] was over 15 µM throughout.
On to `CN1CC(n2nc(-c3ccc(Cl)cc3)c3c(N)ncnc32)C1` [Compound No. 296, 3-(4-Chloro-phenyl)-1-(1-methyl-azetidin-3-yl)-1H-pyrazolo[3,4-d]pyrimidin-4-ylamine], for which the EC50 at ΔF508 CFTR [1] and on ΔF508 CFTR [2] was over 15 µM throughout.
Consider `CC(C)(C)OC(=O)N1CC(n2nc(Cc3cccc4ccccc34)c3c(N)ncnc32)C1` [Compound No. 297, 3-(4-Amino-3-naphthalen-1-ylmethyl-pyrazolo[3,4-d]pyrimidin-1-yl)-azetidine-1-carboxylic acid tert-butyl ester], for which the results for the EC50 at ΔF508 CFTR [1] and at ΔF508 CFTR [2] were over 15 µM and 2 to 5 µM, respectively.
As to `CC(C)(C)n1nc(-c2ccc(Cl)cc2)c2c(NC(=O)O[C@H]3CCOC3)ncnc21` [Compound No. 301, [1-tert-Butyl-3-(4-chloro-phenyl)-1H-pyrazolo[3,4-d]pyrimidin-4-yl]-carbamic acid tetrahydro-furan-3-yl ester], the EC50 on ΔF508 CFTR [1] is 5 to 10 µM; on ΔF508 CFTR [2] it was under 2 µM.
Turning to `CC(C)N1CC(n2nc(-c3ccc(Cl)cc3)c3c(N)ncnc32)C1` [Compound No. 304, 3-(4-Chloro-phenyl)-1-(1-isopropyl-azetidin-3-yl)-1H-pyrazolo[3,4-d]pyrimidin-4-ylamine], the EC50 at ΔF508 CFTR [1] is 5 to 10 µM; at ΔF508 CFTR [2] it was over 15 µM.
For `CCn1cc(-c2ccc(Cl)cc2)c2c(NS(C)(=O)=O)ncnc21` [Compound No. 305, N-[5-(4-Chloro-phenyl)-7-ethyl-7H-pyrrolo[2,3-d]pyrimidin-4-yl]-methanesulfonamide], the half-maximal effective concentration (EC50) on ΔF508 CFTR [1] and at ΔF508 CFTR [2] was over 15 µM each time.
Take `CC(C)(C)OC(=O)N1CC(n2nc(Sc3ccccc3)c3c(N)ncnc32)C1` [Compound No. 320, 3-(4-Amino-3-phenylsulfanyl-pyrazolo[3,4-d]pyrimidin-1-yl)-azetidine-1-carboxylic acid tert-butyl ester]: the EC50 at ΔF508 CFTR [1] is over 15 µM; on ΔF508 CFTR [2], 2 to 5 µM.
As for `CC(C)(C)n1nc(Oc2cccc(Cl)c2)c2c(NC(=O)c3ccccc3)ncnc21` [Compound No. 332, N-[1-tert-Butyl-3-(3-chloro-phenoxy)-1H-pyrazolo[3,4-d]pyrimidin-4-yl]-benzamide], the EC50 is over 15 µM on ΔF508 CFTR [1] and under 2 µM on ΔF508 CFTR [2].
Regarding `CCn1cc(Sc2ccccc2)c2c(N)ncnc21` [Compound No. 333, 7-Ethyl-5-phenylsulfanyl-7H-pyrrolo[2,3-d]pyrimidin-4-ylamine], the values for the EC50 on ΔF508 CFTR [1] and on ΔF508 CFTR [2] were 2 to 5 µM and under 2 µM, respectively.
For `CC(C)(C)OC(=O)N1CC(n2nc(Oc3ccccc3)c3c(N)ncnc32)C1` [Compound No. 341, 3-(4-Amino-3-phenoxy-pyrazolo[3,4-d]pyrimidin-1-yl)-azetidine-1-carboxylic acid tert-butyl ester], the EC50 at ΔF508 CFTR [1] was over 15 µM; at ΔF508 CFTR [2], 5 to 10 µM.
On to `CCOC(=O)N1CC(n2nc(Sc3cccc(Cl)c3)c3c(N)ncnc32)C1` [Compound No. 345, 3-[4-Amino-3-(3-chloro-phenylsulfanyl)-pyrazolo[3,4-d]pyrimidin-1-yl]-azetidine-1-carboxylic acid ethyl ester], for which the EC50 is over 15 µM at ΔF508 CFTR [1] and 2 to 5 µM on ΔF508 CFTR [2].
For `CCNC(=O)N1CC(n2nc(Sc3cccc(Cl)c3)c3c(N)ncnc32)C1` [Compound No. 346, 3-[4-Amino-3-(3-chloro-phenylsulfanyl)-pyrazolo[3,4-d]pyrimidin-1-yl]-azetidine-1-carboxylic acid ethylamide], the EC50 on ΔF508 CFTR [1] and at ΔF508 CFTR [2] was over 15 µM throughout.
Regarding `CN1CC[C@@H](n2nc(-c3ccc(Cl)cc3)c3c(N)ncnc32)C1` [Compound No. 356, 3-(4-Chloro-phenyl)-1-(1-methyl-pyrrolidin-3-yl)-1H-pyrazolo[3,4-d]pyrimidin-4-ylamine], the EC50 at ΔF508 CFTR [1] is under 2 µM; at ΔF508 CFTR [2] it was over 15 µM.
As to `CCn1nc(-c2ccc(Cl)cc2)c2c(N)ncnc21` [compound 67], the figures for the EC50 at ΔF508 CFTR [1] and at ΔF508 CFTR [2] were over 15 µM and 2 to 5 µM, respectively.
`Cc1ccc(-c2nn(C(C)(C)C)c3ncnc(NC(=O)c4ccc(F)cc4)c23)cc1` [compound 94]: the EC50 was 5 to 10 µM at ΔF508 CFTR [1] and over 15 µM at ΔF508 CFTR [2].
Taken in the same sequence, the figures for `Cc1ccc(C(=O)Nc2ncnc3c2c(-c2ccc(C)cc2)nn3C(C)(C)C)cc1` [compound 95] were over 15 µM and 2 to 5 µM.
The corresponding values for `Cc1ccc(-c2nn(C(C)(C)C)c3ncnc(NC(=O)c4ccccc4Cl)c23)cc1` [compound 99] are over 15 µM and 2 to 5 µM.
Take `Cc1cccc(-c2nn(C(C)(C)C)c3ncnc(N)c23)c1` [compound 104]: the figures for the EC50 on ΔF508 CFTR [1] and at ΔF508 CFTR [2] were over 15 µM and 2 to 5 µM, respectively.
Taken in the same sequence, the figures for `CC(=O)Nc1ncnc2c1c(-c1ccc(F)cc1)nn2C(C)(C)C` [compound 118, N-[1-tert-Butyl-3-(4-fluoro-phenyl)-1H-pyrazolo[3,4-d]pyrimidin-4-yl]-acetamide] were over 15 µM and over 15 µM.
For the molecule `CC(C)(C)n1nc(-c2ccc3c(c2)OCO3)c2c(N)ncnc21` [compound 131], the half-maximal effective concentration (EC50) on ΔF508 CFTR [1] is over 15 µM; on ΔF508 CFTR [2] it was 2 to 5 µM.
Turning to `CC(C)(C)n1nc(-c2cccc(Oc3ccccc3)c2)c2c(N)ncnc21` [compound 132], the EC50 on ΔF508 CFTR [1] and on ΔF508 CFTR [2] was over 15 µM in each case.
For the molecule `Cc1cccc(Oc2nn(C(C)(C)C)c3ncnc(N)c23)c1C` [compound 167], the EC50 at ΔF508 CFTR [1] was over 15 µM; on ΔF508 CFTR [2], under 2 µM.
As for `CC(C)(C)n1nc(Oc2ccc(Cl)cc2)c2c(N)ncnc21` [compound 168], the values for the EC50 on ΔF508 CFTR [1] and on ΔF508 CFTR [2] were over 15 µM and under 2 µM, respectively.
